According to patent US12448394B2, “Heterocyclic pyrazole derivatives as type III receptor tyrosine kinase inhibitors” (DEVELOPMENT CENTER FOR BIOTECHNOLOGY, priority 2019, dated 2025):
Where a chain is given by its changes, count along the chain named.

How the values were obtained:
[1] = test system: A375 melanoma cell with BRAF V600E mutation; experiment: A375 cell proliferation assay (counter screen); format: cell-based, human; conditions: Homo sapiens, A-375, A375 cells, 72 hours treatment, CellTiter96, read-out: anti-proliferation activity A375 BRAF V600E, IC50 ranking
Experimental: (§1) Inhibitions of cell growths by compounds were measured using CellTiter™-96 assay. The cytotoxicities of compounds of the invention were evaluated in cell line panels with different signaling pathway dependencies, including MV4-11 human acute myeloid leukemia cell with FLT3-ITD mutation, Molm-14 human acute myeloid leukemia cell with FLT3-ITD mutation, THP-1 human acute monocytic leukemia cell with NRAS G12D mutation, A375 melanoma cell with BRAF V600E mutation, and HCC827 NSCLC cell with EGFR exon 19 deletion mutation.
(§2) A375 cells are melanoma cells encoding BRFA V600E mutation, which renders the cell growth dependent on BRAF signaling instead of class III RTKs signaling. A375 cells (catalog #CRL-1619) were obtained from the ATCC. Briefly, cells were cultured in DMEM containing 10% FBS and incubated at 37° C. in 5% CO2 atmosphere. Cells were allowed to expand until reaching saturation, at which point they were sub-cultured or harvested for assay use.
(§3) MV4-11, Molm-14, THP-1, A375, and HCC827 cells were seeded into 96-well plates at 6500, 25000, 5000, 2000 and 8000 cells/well, respectively, and incubated at 37° C., 5% CO2 overnight. Then, these seeded cells were treated with increasing concentrations of the test compounds and incubated for another 72 hours. At the end of the incubation, CellTiter96® AQueous One Solution Reagent (Promega, […]) was added and incubated for the additional 2˜4 hours. Cell viability was determined by measuring absorbance at 490 nm using EMax® microplate reader (Molecular Devices, San Jose, CA, USA).

[2] = test system: THP-1 human acute monocytic leukemia cell with NRAS G12D mutation; experiment: THP-1 cell proliferation assay (counter screen); format: cell-based; conditions: Homo sapiens, THP-1 cells, 72 hours treatment, CellTiter96, read-out: anti-proliferation activity THP-1 NRAS N12D, IC50 ranking
Experimental: as §1
THP-1 cells are human acute monocytic leukemia cells with NRAS G12D mutation, which renders the cell growth independent of class III RTKs signaling. THP-1 cells (catalog #TIB-202) were obtained from the ATCC. Briefly, cells were grown in RPMI 1640 medium supplemented with 10% heat inactivated fetal bovine serum and 0.05 mM 2-mercaptoethanol and incubated at 37° C. in 5% CO2 atmosphere. Cells were allowed to expand until reaching saturation, at which point they were sub-cultured or harvested for assay use.
as §3

[3] = test system: MV4-11 human acute myeloid leukemia cell with FLT3-ITD mutation; experiment: MV4-11 cell proliferation assay (CellTiter 96); format: cell-based; conditions: Homo sapiens, MV4-11, 72 h, MV4-11 cells, 72 hours treatment, CellTiter96; read-out: anti-proliferation activity MV4-11 (FLT3-ITD), IC50 ranking
Experimental: as §1
The compounds disclosed herein were tested in MV4-11 cell proliferation assay to determine their cellular potencies against FLT3 signal pathway dependent cell growths. MV4-11 cells are human acute myeloid leukemia (AML) cells harboring ligand-independent FLT3-ITD activating mutation, which renders the abnormal proliferation of AML cells FLT3 signaling pathway dependent. Inhibition of FLT3 kinase activity will result in reduced growths and/or cell deaths. MV4-11 cells (catalog #CRL-9591) were obtained from the American Type Culture Collection (ATCC, Manassas, VA). Briefly, cells were grown in IMDM medium supplemented with 10% heat inactivated fetal bovine serum and incubated at 37° C. in 5% CO2 atmosphere. Cells were allowed to expand until reaching saturation, at which point they were sub-cultured or harvested for assay use.
as §3

[4] = test system: HCC827 NSCLC cell with EGFR exon 19 deletion mutation; experiment: HCC827 cell proliferation assay (counter screen); format: cell-based, human; conditions: Homo sapiens, HCC827 cells, 72 hours treatment, CellTiter96, read-out: anti-proliferation activity HCC827 EGFR Exon19 del, IC50 ranking
Experimental: as §1
as §2, with “HCC827” for “A375”, “non-small cell lung carcinoma (NSCLC)” for “melanoma”, “EGFR exon 19 deletion” for “BRFA V600E”, “EGFR” for “BRAF”, “#CRL-2868)” for “#CRL-1619)”, “RPMI1640 medium supplemented with” for “DMEM containing”
as §3

[5] = test system: Molm-14 human acute myeloid leukemia cell with FLT3-ITD mutation; experiment: Molm-14 cell proliferation assay (CellTiter 96); format: cell-based; conditions: Homo sapiens; Molm-14 cells, 72 hours treatment, CellTiter96; read-out: anti-proliferation activity Molm-14 (FLT3-ITD), IC50 ranking
Experimental: as §1
The compounds disclosed herein were tested in Molm-14 cell proliferation assay to determine their cellular potencies against FLT3 signal pathway dependent cell growths. Molm-14 cells are human acute myeloid leukemia (AML) cells harboring ligand-independent FLT3-ITD activating mutation, which renders the abnormal proliferation of the AML cells FLT3 signaling pathway dependent. Inhibition of FLT3 kinase activity will result in reduced growths and/or cell deaths. […] Briefly, cells were grown in RPMI 1640 medium supplemented with 10% heat inactivated fetal bovine serum and incubated at 37° C. in 5% CO2 atmosphere. Cells were allowed to expand until reaching saturation, at which point they were sub-cultured or harvested for assay use.
as §3

[6] = biological target: T1, FLT3 kinase (Homo sapiens, UniProt P36888); experiment: FLT3 kinase assay (AlphaScreen); format: biochemical; conditions: mean; read-out: Biochemical activity (Mean IC50, nM) FLT3
T1 construct: purchased SignalChem
T1 sequence (P36888 27-993): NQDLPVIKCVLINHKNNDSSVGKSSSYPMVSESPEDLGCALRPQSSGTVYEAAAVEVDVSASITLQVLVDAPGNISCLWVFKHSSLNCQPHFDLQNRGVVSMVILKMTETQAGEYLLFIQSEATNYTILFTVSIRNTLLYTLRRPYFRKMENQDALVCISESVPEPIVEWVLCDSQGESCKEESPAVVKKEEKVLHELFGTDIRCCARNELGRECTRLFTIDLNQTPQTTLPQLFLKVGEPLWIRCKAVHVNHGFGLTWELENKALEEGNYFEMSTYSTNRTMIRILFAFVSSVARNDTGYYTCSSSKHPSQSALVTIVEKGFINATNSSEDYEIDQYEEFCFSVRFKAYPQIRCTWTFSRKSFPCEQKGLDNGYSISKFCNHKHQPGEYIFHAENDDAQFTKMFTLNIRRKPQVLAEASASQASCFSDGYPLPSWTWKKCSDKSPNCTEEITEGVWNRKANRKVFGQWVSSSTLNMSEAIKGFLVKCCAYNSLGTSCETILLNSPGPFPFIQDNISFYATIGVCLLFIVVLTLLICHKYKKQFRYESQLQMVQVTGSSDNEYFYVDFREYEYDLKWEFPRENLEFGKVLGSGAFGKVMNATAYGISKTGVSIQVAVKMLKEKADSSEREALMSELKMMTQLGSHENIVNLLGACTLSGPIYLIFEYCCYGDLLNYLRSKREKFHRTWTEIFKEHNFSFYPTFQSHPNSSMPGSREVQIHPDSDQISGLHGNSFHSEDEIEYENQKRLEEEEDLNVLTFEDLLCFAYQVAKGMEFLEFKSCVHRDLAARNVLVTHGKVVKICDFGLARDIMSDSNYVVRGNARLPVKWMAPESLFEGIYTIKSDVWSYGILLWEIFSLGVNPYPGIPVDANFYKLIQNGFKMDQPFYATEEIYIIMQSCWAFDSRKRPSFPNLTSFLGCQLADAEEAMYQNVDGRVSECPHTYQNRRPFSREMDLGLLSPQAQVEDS
Experimental: (§4) Inhibition of FLT3 kinase activity by a test compound disclosed herein was estimated by AlphaScreen (PerkinElmer, Akron, Ohio, USA). Standard assay conditions were 1.5 ng of recombinant FLT3 kinase (SignalChem, Richmond, BC, Canada) with 6 ng Biotin-conjugated Poly-(Glu 4: Tyr 1) (Cisbio, Bedford, MA, USA) in the assay buffer (10 μM ATP, 10 mM MOPs, pH7.0, 0.21 mM EDTA, 0.5% glycerol, 1 mg/mL BSA, 0.01% 2-mercaptoethanol, 0.001% Brij35, 10 mM MgCl2) in a final volume of 25 μL. Reactions were incubated at 30° C. for 30 min and stopped by adding 5 μL of 50 mM EDTA. Analysis of resulting product using an AlphaScreen kit and counted with Enspire Alpha (PerkinElmer, Waltham, MA, USA). […] The IC50 values of inhibitors were determined after carrying out assays with each compound at serially diluted concentrations in duplication. The results were analyzed using linear regression software (GraphPad Prism 5; GraphPad Software Inc.)

[7] = biological target: T2, FLT3-D835Y mutant kinase (Homo sapiens, UniProt P36888, D835Y); experiment: FLT3-D835Y mutant kinase assay (AlphaScreen); format: biochemical; conditions: mean; read-out: Biochemical activity (Mean IC50, nM) FLT3-D835Y
T2 construct: purchased SignalChem
T2 sequence (P36888 27-993 D835Y): T1 sequence (P36888 27-993) with D809Y
Experimental: as §4, with “FLT3-D835Y mutant” for “FLT3”, “(PerkinElmer).” for “(PerkinElmer, Akron, Ohio, USA).”, “1” for “1.5”, “(SignalChem)” for “(SignalChem, Richmond, BC, Canada)”, “(Cisbio)” for “(Cisbio, Bedford, MA, USA)”, “(PerkinElmer).” for “(PerkinElmer, Waltham, MA, USA).”

| IC50 [3] [nM] | IC50 [5] [nM] | IC50 [6] [nM] | IC50 [7] [nM] | Compound | IC50 [1] [nM] | IC50 [2] [nM] | IC50 [4] [nM] |
| --- | --- | --- | --- | --- | --- | --- | --- |
| < 30 | < 30 |  |  | Cn1ncc2ccc(-c3n[nH]c4c3Cc3sc(-c5ccc(CN6CCOCC6)cn5)cc3-4)cc21 [Compound 55, 4-((6-(3-(1-methyl-1H-indazol-6-yl)-1,4-dihydro-thieno[2′,3′:4,5]cyclopenta [1,2-c]pyrazol-6-yl)pyridin-3-yl)methyl) morpholine] | > 10000 | > 10000 | > 10000 |
|  |  | 8 | 15 | COc1ccc(-c2n[nH]c3c2Cc2sc(-c4ccc(N)nc4)cc2-3)cc1 [Example H, 5-(3-(4-methoxyphenyl)-1,4-dihydrothieno[2′,3′:4,5]cyclopenta[1,2-c]pyrazol-6-yl)pyridin-2-amine, reference compound] |  |  |  |
